The source of these data is ChEMBL document CHEMBL1137936, “Optimization of the indolyl quinolinone class of KDR (VEGFR-2) kinase inhibitors: effects of 5-amido- and 5-sulphonamido-indolyl groups on pharmacokinetics and hERG binding” (Bioorg Med Chem Lett, 2004).

Data set [1] has as its target Vascular endothelial growth factor receptor 2 (Homo sapiens, UniProt P35968). The experiment in a line: Inhibition of VEGF receptor 2 mediated phosphorylation of poly-Glu/Tyr (4:1).
Data set [2] in a line: Compound was tested for the inhibition of VEGF-stimulated mitogenesis as determined in human umbilical vein endothelial cells. Particulars: endothelial cell. The data set is classed as functional, cell-based.
Data set [3] deals with T1, Voltage-gated inwardly rectifying potassium channel KCNH2 (Homo sapiens, UniProt Q12809). The experiment in a line: Affinity for HERG voltage-gated potassium channel subunit Kv11.1.
T1 sequence (Q12809 whole entry): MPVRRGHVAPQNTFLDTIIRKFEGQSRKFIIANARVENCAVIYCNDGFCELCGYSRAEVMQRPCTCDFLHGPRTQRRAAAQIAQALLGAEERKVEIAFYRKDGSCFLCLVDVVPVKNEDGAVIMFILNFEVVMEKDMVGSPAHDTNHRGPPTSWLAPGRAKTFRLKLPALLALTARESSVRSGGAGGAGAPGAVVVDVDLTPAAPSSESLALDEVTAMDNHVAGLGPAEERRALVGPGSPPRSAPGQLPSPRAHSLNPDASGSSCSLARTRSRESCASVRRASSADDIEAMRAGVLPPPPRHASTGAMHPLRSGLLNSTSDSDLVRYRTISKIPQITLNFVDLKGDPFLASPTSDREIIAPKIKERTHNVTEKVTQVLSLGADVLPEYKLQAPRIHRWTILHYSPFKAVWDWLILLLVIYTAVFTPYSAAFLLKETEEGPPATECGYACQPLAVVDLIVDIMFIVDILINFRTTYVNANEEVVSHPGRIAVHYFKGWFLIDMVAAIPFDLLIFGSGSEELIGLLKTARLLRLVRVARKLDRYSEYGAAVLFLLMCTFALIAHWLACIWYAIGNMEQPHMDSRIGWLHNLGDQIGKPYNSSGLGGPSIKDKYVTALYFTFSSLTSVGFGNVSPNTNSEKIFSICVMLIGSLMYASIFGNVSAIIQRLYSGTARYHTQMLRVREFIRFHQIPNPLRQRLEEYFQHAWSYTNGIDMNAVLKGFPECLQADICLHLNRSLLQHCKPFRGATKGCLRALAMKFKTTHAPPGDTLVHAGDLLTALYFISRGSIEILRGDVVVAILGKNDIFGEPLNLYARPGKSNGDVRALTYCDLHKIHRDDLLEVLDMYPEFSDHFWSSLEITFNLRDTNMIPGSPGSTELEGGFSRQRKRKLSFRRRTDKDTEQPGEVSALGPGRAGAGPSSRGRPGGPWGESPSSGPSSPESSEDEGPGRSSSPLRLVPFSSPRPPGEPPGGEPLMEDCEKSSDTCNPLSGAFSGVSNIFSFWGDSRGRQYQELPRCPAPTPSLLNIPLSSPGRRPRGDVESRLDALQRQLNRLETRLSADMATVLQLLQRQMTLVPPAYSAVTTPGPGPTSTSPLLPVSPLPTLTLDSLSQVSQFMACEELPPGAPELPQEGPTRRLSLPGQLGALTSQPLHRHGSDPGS
Data set [4] is described as follows: Plasma clearance in dogs. Particulars: dog. The data set is classed as ADME, organism-based, Canis lupus familiaris.
Data set [5] in a line: Partition coefficient (logP). To be noted: octanol/water. The data set is classed as physicochemical.
The nature of data set [6]: Half life in dog plasma. The data set is classed as ADME, organism-based, Canis lupus familiaris.
In data set [7] the target is T1, Voltage-gated inwardly rectifying potassium channel KCNH2. Briefly: Effect on prolongation of the heart rate-corrected QT interval. The data set is classed as functional.
Data set [8] can be described thus: Volume distribution in monkey after administration of 1 mg/kg iv. The data set is classed as ADME, organism-based. On the set-up: dose 1 mg/kg, route intravenous. Particulars: cercopithecidae, in vivo, read-out: Vss.
Data set [9] in a line: Cmax in monkey after administration of 1 mg/kg iv. The data set is classed as ADME, organism-based. On the set-up: dose 1 mg/kg, route intravenous. Particulars: cercopithecidae, in vivo.
A short description of data set [10]: Volume distribution in dog after administration of 1 mg/kg iv. The data set is classed as ADME, organism-based, Canis lupus familiaris. More on the design: dose 1 mg/kg, route intravenous. To be noted: in vivo, read-out: Vss.
A short description of data set [11]: Plasma clearance in dog after administration of 1 mg/kg iv. On the set-up: dose 1 mg/kg, route intravenous. The data set is classed as ADME, organism-based, Canis lupus familiaris.
Data set [12] can be described thus: Half life in dog plasma after administration of 1 mg/kg iv. The data set is classed as ADME, organism-based, Canis lupus familiaris. More on the design: dose 1 mg/kg, route intravenous.
Data set [13] in a line: Half life in monkey plasma after administration of 1 mg/kg iv. The data set is classed as ADME, organism-based. More on the design: dose 1 mg/kg, route intravenous. To be noted: cercopithecidae.
Data set [14] is described as follows: Cmax in dog after administration of 1 mg/kg iv. The data set is classed as ADME, organism-based, Canis lupus familiaris. On the set-up: dose 1 mg/kg, route intravenous. Particulars: in vivo.
Data set [15] in a line: Cmax in rat after administration of 2 mg/kg iv. The data set is classed as ADME, organism-based. More on the design: dose 2 mg/kg, route intravenous. To be noted: in vivo.
Data set [16] in a line: Volume distribution in rat after administration of 2 mg/kg iv. To be noted: in vivo, read-out: Vss. On the set-up: dose 2 mg/kg, route intravenous. The data set is classed as ADME, organism-based.
The nature of data set [17]: Plasma clearance in monkey after administration of 1 mg/kg iv. To be noted: cercopithecidae. The data set is classed as ADME, organism-based. More on the design: dose 1 mg/kg, route intravenous.
A short description of data set [18]: Half life in rat plasma after administration of 2 mg/kg iv. On the set-up: dose 2 mg/kg, route intravenous. The data set is classed as ADME, organism-based.
Data set [19] in a line: Oral bioavailability in monkey (dose 1 mg/kg p.o.). The data set is classed as ADME, organism-based. Particulars: cercopithecidae, in vivo.
Data set [20] can be described thus: Oral bioavailability in rat (dose 10 mg/kg p.o.). The data set is classed as ADME, organism-based. To be noted: in vivo.
Data set [21] in a line: Oral bioavailability in dog (dose 1 mg/kg p.o.). The data set is classed as ADME, organism-based, Canis lupus familiaris. Particulars: in vivo.
Data set [22] is described as follows: Plasma clearance in rat after administration of 2 mg/kg iv. The data set is classed as ADME, organism-based. On the set-up: dose 2 mg/kg, route intravenous.
Data set [23] in a line: Half life in dog plasma after administration of 0.25 mg/kg iv. More on the design: dose 0.25 mg/kg, route intravenous. The data set is classed as ADME, organism-based, Canis lupus familiaris.
A short description of data set [24]: Plasma clearance in dog after administration of 0.25 mg/kg iv. The data set is classed as ADME, organism-based, Canis lupus familiaris. More on the design: dose 0.25 mg/kg, route intravenous.
Data set [25] in a line: Oral bioavailability in rat after administration of 10 mg/kg po. The data set is classed as ADME, organism-based. Particulars: in vivo.

Vascular endothelial growth factor receptor 2, sequence (P35968 whole entry): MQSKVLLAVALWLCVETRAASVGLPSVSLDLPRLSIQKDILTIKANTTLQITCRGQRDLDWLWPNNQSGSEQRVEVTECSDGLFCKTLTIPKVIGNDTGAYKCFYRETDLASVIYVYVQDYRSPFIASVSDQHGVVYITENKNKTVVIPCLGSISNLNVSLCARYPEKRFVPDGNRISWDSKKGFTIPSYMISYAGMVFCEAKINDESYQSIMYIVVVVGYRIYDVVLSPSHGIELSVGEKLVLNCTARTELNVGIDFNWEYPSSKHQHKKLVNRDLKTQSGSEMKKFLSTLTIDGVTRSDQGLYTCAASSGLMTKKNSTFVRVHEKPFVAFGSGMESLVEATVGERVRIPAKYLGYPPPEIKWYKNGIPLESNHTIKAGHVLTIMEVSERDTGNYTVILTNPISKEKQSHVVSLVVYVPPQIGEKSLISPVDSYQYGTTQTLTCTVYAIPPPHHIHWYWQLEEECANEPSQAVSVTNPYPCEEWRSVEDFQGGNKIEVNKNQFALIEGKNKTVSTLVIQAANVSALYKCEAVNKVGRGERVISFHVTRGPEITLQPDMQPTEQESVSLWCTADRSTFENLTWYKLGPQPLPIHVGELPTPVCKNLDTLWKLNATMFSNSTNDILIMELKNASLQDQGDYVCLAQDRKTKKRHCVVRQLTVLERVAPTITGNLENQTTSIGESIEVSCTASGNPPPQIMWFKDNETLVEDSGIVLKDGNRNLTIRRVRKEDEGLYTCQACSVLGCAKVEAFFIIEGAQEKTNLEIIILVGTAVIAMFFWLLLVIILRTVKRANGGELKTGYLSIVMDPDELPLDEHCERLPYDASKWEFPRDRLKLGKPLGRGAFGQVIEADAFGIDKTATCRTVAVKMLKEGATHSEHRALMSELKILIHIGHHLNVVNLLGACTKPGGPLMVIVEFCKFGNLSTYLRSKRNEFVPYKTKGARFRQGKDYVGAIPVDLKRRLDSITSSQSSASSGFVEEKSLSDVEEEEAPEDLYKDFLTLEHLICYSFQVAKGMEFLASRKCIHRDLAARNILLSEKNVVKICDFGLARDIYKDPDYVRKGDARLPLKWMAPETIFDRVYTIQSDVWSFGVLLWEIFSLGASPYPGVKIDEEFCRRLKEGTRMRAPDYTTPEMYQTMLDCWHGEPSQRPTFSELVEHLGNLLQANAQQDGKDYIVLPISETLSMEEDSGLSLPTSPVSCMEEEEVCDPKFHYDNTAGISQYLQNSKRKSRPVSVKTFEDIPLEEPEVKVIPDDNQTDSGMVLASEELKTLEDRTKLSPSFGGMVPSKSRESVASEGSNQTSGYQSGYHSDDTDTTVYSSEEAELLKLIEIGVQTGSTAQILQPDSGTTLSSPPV

By IC50 is commonly meant the concentration at which inhibition is half-maximal. Broadly, the clearance is the rate of elimination divided by the concentration. Usually logP stands for a log measure of how a compound divides between an organic and an aqueous phase. Usually half-life stands for the time in which the quantity being followed falls by half. For `O=C(c1ccc2[nH]c(-c3cc4ccccc4nc3O)cc2c1)N1CCNCC1`, the figures for the IC50 in data set [1] and in data set [2] were 5 nM and 4 nM, respectively. The IP in [3] is on record as more than 10000 nM. The clearance in data set [4] was found to be 27 mL/min/kg. The logP in data set [5] is 1.7. The same compound gave a half-life in [6] of 4.2 h.
With `O=c1[nH]c2ccccc2cc1-c1cc2cc(S(=O)(=O)NC3CCNC3)ccc2[nH]1` (stereo not given), the results for the IC50 in [1] and in [2] were 14 nM and 97 nM, respectively. In addition, the IP in [3] turned out to be 2835 nM. The compound further returned a clearance in data set [4] of 0.4 mL/min/kg. Moreover, in data set [6], the half-life is 9.5 h.
As usually defined, the EC10 is the point of the concentration-response curve where the effect stands at 10%. `O=C(O)C1CCN(CCCOc2ccc3[nH]c(-c4cc5ccccc5nc4O)cc3c2)CC1`: the IC50 in data set [1] was found to be 8 nM; in data set [2], 41 nM. The compound further showed an IP in data set [3] of 3050 nM. The compound also came in with a clearance in [4] of 7.7 mL/min/kg. The compound further gave a logP in data set [5] of 0.9. The compound further came in with an EC10 in data set [7] of 5200 nM. In addition, the half-life in data set [6] is 3.2 h.
What is called Cmax is the peak of the concentration-time curve. A word on the bioavailability: it is dose-corrected exposure relative to a reference, in per cent. Regarding `CN1CCN(C(=O)c2ccc3[nH]c(-c4cc5ccccc5nc4O)cc3c2)CC1`, the values for the Vd in data set [8], in data set [10] and in data set [16] were 0.9 L/kg, 2.9 L/kg and 0.7 L/kg, respectively. In addition, the IC50 was 5 nM in data set [1] and 4 nM in [2]. The compound also displayed an IP in [3] of 10800 nM. Moreover, the clearance in data set [4] was 19 mL/min/kg; in [11], 19 mL/min/kg; in [17], 3.4 mL/min/kg; in data set [22], 3.8 mL/min/kg. This compound showed a logP in data set [5] of 2.6. Moreover, the values for the Cmax in data set [9], in data set [14] and in data set [15] were 1250 nM, 160 nM and 5790 nM, respectively. The half-life was 2.4 h in data set [12], 2.8 h in data set [13], 2.3 h in data set [18] and 2.4 h in [6]. Also, the bioavailability in data set [19] turned out to be 46%; in [20] it was 31%; in [21] it was 15%.
On to `O=c1[nH]c2ccccc2cc1-c1cc2cc(S(=O)(=O)N3CCNCC3)ccc2[nH]1`, for which the IC50 in data set [1] amounted to 11 nM; in data set [2] it was 30 nM. The IP in data set [3] is listed as 2450 nM. The same compound came in with a clearance in [4] of 3.5 mL/min/kg. The compound also gave a logP in [5] of 2.3. The half-life in [6] was 12.7 h.
`COCCN(C)CCOc1ccc2[nH]c(-c3cc4ccccc4nc3O)cc2c1`: the IC50 in data set [1] turned out to be 7 nM; in [2], 8 nM. In addition, in data set [3], the IP is recorded as 1950 nM. Further, the clearance in data set [4] was more than 50 mL/min/kg; in [24] it was more than 50 mL/min/kg; in data set [22], 56 mL/min/kg. In addition, the logP in data set [5] was found to be 3.1. In data set [15], this compound yielded a Cmax of 470 nM. Also, the half-life was less than 1 h in data set [23], 1.4 h in data set [18] and less than 1 h in data set [6]. In [16], the Vd stood at 5 L/kg. For the same compound, in [7], the EC10 is 1900 nM. Further, the bioavailability in [25] stood at 20%.
In the case of `NC1CCN(S(=O)(=O)c2ccc3[nH]c(-c4cc5ccccc5nc4O)cc3c2)C1` (stereo not given), the figures for the IC50 in data set [1] and in data set [2] were 16 nM and 27 nM, respectively. In data set [3], this compound showed an IP of 2650 nM. The clearance in data set [4] was 11 mL/min/kg. This compound also gave a half-life in data set [6] of 3.4 h.
In data set [2], `O=c1[nH]c2ccccc2cc1-c1nc2ccccc2[nH]1` returned an IC50 of 1140 nM.
Turning to `CN1CCN(S(=O)(=O)c2ccc3[nH]c(-c4cc5ccccc5nc4O)cc3c2)CC1`, the results for the Vd in data set [8], in [10] and in data set [16] were 2.1 L/kg, 0.3 L/kg and 0.9 L/kg, respectively. Moreover, the IC50 in data set [1] was found to be 10 nM; in data set [2] it was 31 nM. This compound registered an IP in [3] of 3440 nM. Besides, the clearance in data set [4] is 0.5 mL/min/kg; in data set [11] it was 0.5 mL/min/kg; in data set [17], 12 mL/min/kg; in [22], 29 mL/min/kg. This compound also had a logP in [5] of 3. Moreover, the Cmax in data set [9] was 630 nM; in [14] it was 5200 nM; in data set [15] it was 4800 nM. Moreover, the half-life in data set [12] was 6.4 h; in data set [13], 3.4 h; in data set [18] it was 1.1 h; in data set [6], 6.4 h. Moreover, the bioavailability in data set [19] worked out at 40%; in data set [20] it was 54%; in data set [21], 63%.
For `Oc1nc2ccccc2cc1-c1cc2cc(OCCN3CCCCC3)ccc2[nH]1`, the 50% inhibitory concentration (IC50) in [1] came out at 4 nM; in data set [2], 17 nM. The same compound gave an IP in data set [3] of 980 nM. Also, the clearance in data set [4] was more than 50 mL/min/kg. Moreover, the logP in [5] amounted to 3.7. In addition, in data set [7], the EC10 is given as 640 nM. This compound gave a half-life in [6] of 1.3 h.
For the compound `O=C(NC1CCNC1)c1ccc2[nH]c(-c3cc4ccccc4nc3O)cc2c1` (stereo not given), the IC50 amounted to 6 nM in [1] and 53 nM in data set [2]. Also, in data set [3], the IP is recorded as 13700 nM. Also, the clearance in [4] worked out at 38 mL/min/kg. Moreover, the half-life in data set [6] is 1.7 h.
In the case of `NC1CCN(C(=O)c2ccc3[nH]c(-c4cc5ccccc5nc4O)cc3c2)C1` (stereo not given), the IC50 in data set [1] amounted to 5 nM; in [2] it was 4 nM. Moreover, the IP in [3] is recorded as more than 10000 nM. The compound also yielded a clearance in [4] of 26 mL/min/kg. This compound had a half-life in [6] of 1.1 h.
`O=c1[nH]c2ccccc2cc1-c1cc2ccccc2[nH]1`: in data set [2], the midpoint of inhibition, the IC50, lay at 184 nM.
Consider `CC(=O)N1CCN(CCOc2ccc3[nH]c(-c4cc5ccccc5nc4O)cc3c2)CC1`, for which the IC50 in data set [1] and in [2] was 4 nM in each case. The compound further gave an IP in data set [3] of 520 nM. In [4], the clearance was 7.8 mL/min/kg. In data set [5], this compound came in with a logP of 3.2. Also, in [6], the half-life was 2.2 h.
